# How the values were obtained:
# [1] = test system: Mycobacterium tuberculosis; test: Antimycobacterial activity of compound against Mycobacterium tuberculosis H37Rv at 6.25 ug/mL; assay type: functional
# [2] = test system: Mycobacterium tuberculosis; test: Antimycobacterial activity of compound against Mycobacterium tuberculosis H37Rv at 1.56 ug/mL; assay type: functional
# [3] = test system: Mycobacterium tuberculosis; test: Antimycobacterial activity of compound against Mycobacterium tuberculosis H37Rv at 5 ug/mL; assay type: functional
# [4] = test system: Mycobacterium tuberculosis; test: Antimycobacterial activity of compound against Mycobacterium tuberculosis H37Rv at 8 ug/mL; assay type: functional
# [5] = test system: Mycobacterium tuberculosis; test: Antimycobacterial activity of compound against Mycobacterium tuberculosis H37Rv at 2 ug/mL; assay type: functional
# [6] = test system: Mycobacterium tuberculosis; test: Antimycobacterial activity of compound against Mycobacterium tuberculosis H37Rv at 1.88 ug/mL; assay type: functional
# [7] = test system: Mycobacterium tuberculosis; test: Antimycobacterial activity of compound against Mycobacterium tuberculosis H37Rv at 2.50 ug/mL
# [8] = test system: Mycobacterium tuberculosis; test: Antimycobacterial activity of compound against Mycobacterium tuberculosis H37Rv at 0.05 ug/mL; assay type: functional
# [9] = test system: Mycobacterium tuberculosis; test: Antimycobacterial activity of compound against Mycobacterium tuberculosis H37Rv at 0.125 ug/mL; assay type: functional
Structure (SMILES),inhibition at 6.25 µg/mL [1] [%],also measured
CC(=O)Nc1ccc(NC(=O)N/N=C/c2ccccc2[N+](=O)[O-])cc1,90,–
Cc1c(Cl)cccc1NC(=O)N/N=C/c1ccccc1O,0,–
CC(=O)Nc1ccc(NC(=O)N/N=C/c2ccc([N+](=O)[O-])cc2)cc1,95,–
Cc1c(Cl)cccc1NC(=O)N/N=C/c1ccccc1[N+](=O)[O-],10,–
CC(=O)Nc1ccc(NC(=O)N/N=C/c2ccccc2O)cc1,5,–
CC(=O)Nc1ccc(NC(=O)N/N=C/c2ccc(N(C)C)cc2)cc1,2,–
Cc1c(Cl)cccc1NC(=O)N/N=C/c1ccc(N(C)C)cc1,0,–
Cc1c(Cl)cccc1NC(=O)N/N=C/c1cccc([N+](=O)[O-])c1,58,–
CC(=O)Nc1ccc(NC(=O)N/N=C/c2cccc([N+](=O)[O-])c2)cc1,–,inhibition at 1.56 µg/mL [2]: 100%
Cc1c(Cl)cccc1NC(=O)N/N=C/c1ccc([N+](=O)[O-])cc1,24,–
"NC[C@H]1O[C@H](O[C@H]2[C@H](O)[C@@H](O[C@H]3O[C@H](CO)[C@@H](O)[C@H](N)C3O)[C@H](N)C[C@@H]2N)[C@H](O)[C@@H](O)[C@@H]1O (single isomer, unassigned) [KANAMYCIN]",–,inhibition at 5 µg/mL [3]: 90%
Nc1ccc(C(=O)O)c(O)c1 [AMINOSALICYLIC ACID],–,inhibition at 8 µg/mL [4]: 92%
O=C(O)c1cn(C2CC2)c2cc(N3CCNCC3)c(F)cc2c1=O [CIPROFLOXACIN],–,inhibition at 2 µg/mL [5]: 95%
CC[C@@H](CO)NCCN[C@@H](CC)CO [ETHAMBUTOL],–,inhibition at 1.88 µg/mL [6]: 90%
CCc1cc(C(N)=S)ccn1 [ETHIONAMIDE],–,inhibition at 2.5 µg/mL [7]: 90%
NNC(=O)c1ccncc1 [ISONIAZID],–,inhibition at 0.05 µg/mL [8]: 95%
CO[C@H]1/C=C/O[C@@]2(C)Oc3c(C)c(O)c4c(O)c(c(/C=N/N5CCN(C)CC5)c(O)c4c3C2=O)NC(=O)/C(C)=C\C=C\[C@H](C)[C@H](O)[C@@H](C)[C@@H](O)[C@@H](C)[C@H](OC(C)=O)[C@@H]1C [RIFAMPIN],–,inhibition at 0.125 µg/mL [9]: 95%
